Data: US20240317724A1, “3,4-METHYLENEDIOXYMETHAMPHETAMINE AND RELATED PS[…] USES THEREOF” (Terran Biosciences Inc., priority 2021, published 2024)

Assay: Single oral (PO) dose pharmacokinetics study in rats; plasma concentration of MDMA (and prodrug) by LC-MS/MS
Conditions: male SD rats
[1] = 0.50 h after oral dosing of prodrug 10 mg/Kg
[2] = 1.00 h after oral dosing of prodrug 10 mg/Kg
[3] = 2.00 h after oral dosing of prodrug 10 mg/Kg
[4] = 4.00 h after oral dosing of prodrug 10 mg/Kg
[5] = 7.00 h after oral dosing of prodrug 10 mg/Kg
[6] = 24.0 h after oral dosing of prodrug 10 mg/Kg

Structure (SMILES) | Mean plasma concentration of metabolite MDMA [1] | Mean plasma concentration of metabolite MDMA [2] | Mean plasma concentration of metabolite MDMA [3] | Mean plasma concentration of metabolite MDMA [4] | Mean plasma concentration of metabolite MDMA [5] | Mean plasma concentration of metabolite MDMA [6] | Tlast of MDMA prodrug (oral dosing of prodrug 10 mg/Kg, analyte prodrug, mean) [h]
CC(=O)OCC(C)(C)CC(=O)N(C)C(C)Cc1ccc2c(c1)OCO2 (stereo not shown) [(3-{[2-(2H-1,3-Benzodioxol-5-yl)-1-methylethyl]-N-methylcarbamoyl}-2,2-dimethylpropyl acetate] | BLQ (BLQ: Below Lower Limit of Quantification (0.5 ng/mL)) | BLQ (BLQ: Below Lower Limit of Quantification (0.5 ng/mL)) | BLQ (BLQ: Below Lower Limit of Quantification (0.5 ng/mL)) | BLQ (BLQ: Below Lower Limit of Quantification (0.5 ng/mL)) | BLQ (BLQ: Below Lower Limit of Quantification (0.5 ng/mL)) | BLQ (BLQ: Below Lower Limit of Quantification (0.5 ng/mL)) | 
CC(Cc1ccc2c(c1)OCO2)N(C)C(=O)CCCCC(=O)O (stereo not shown) [Adipate prodrug of MDMA, 5-{[2-(2H-1,3-Benzodioxol-5-yl)-1-methyl-ethyl]-N-methylcarbamoyl}valeric acid] | BLQ (BLQ: Below Lower Limit of Quantification (0.5 ng/mL)) | BLQ (BLQ: Below Lower Limit of Quantification (0.5 ng/mL)) | BLQ (BLQ: Below Lower Limit of Quantification (0.5 ng/mL)) | BLQ (BLQ: Below Lower Limit of Quantification (0.5 ng/mL)) | BLQ (BLQ: Below Lower Limit of Quantification (0.5 ng/mL)) | BLQ (BLQ: Below Lower Limit of Quantification (0.5 ng/mL)) | 
CC(Cc1ccc2c(c1)OCO2)N(C)C(=O)N(C)C (stereo not shown) [Dimethylurea prodrug of MDMA, 1-[2-(2H-1,3-Benzodioxol-5-yl)-1-methyl-ethyl]-1,3,3-trimethylurea] | BLQ (BLQ: Below Lower Limit of Quantification (0.5 ng/mL)) | BLQ (BLQ: Below Lower Limit of Quantification (0.5 ng/mL)) | BLQ (BLQ: Below Lower Limit of Quantification (0.5 ng/mL)) | BLQ (BLQ: Below Lower Limit of Quantification (0.5 ng/mL)) | BLQ (BLQ: Below Lower Limit of Quantification (0.5 ng/mL)) | BLQ (BLQ: Below Lower Limit of Quantification (0.5 ng/mL)) | 
CCOC(=O)N(C)C(C)Cc1ccc2c(c1)OCO2 (stereo not shown) [Ethyl carbamate prodrug of MDMA, Ethyl N-[2-(1,3-benzodioxol-5-yl)-1-methyl-ethyl]-N-methyl-carbamate] | BLQ (BLQ: Below Lower Limit of Quantification (0.5 ng/mL)) | BLQ (BLQ: Below Lower Limit of Quantification (0.5 ng/mL)) | BLQ (BLQ: Below Lower Limit of Quantification (0.5 ng/mL)) | BLQ (BLQ: Below Lower Limit of Quantification (0.5 ng/mL)) | BLQ (BLQ: Below Lower Limit of Quantification (0.5 ng/mL)) | BLQ (BLQ: Below Lower Limit of Quantification (0.5 ng/mL)) | 
CC(Cc1ccc2c(c1)OCO2)N(C)C(=O)CCCC(=O)O (stereo not shown) [Glutarate Prodrug of MDMA, 4-{[2-(2H-1,3-Benzodioxol-5-yl)-1-methyl-ethyl]-N-methylcarbamoyl}butyric acid] | BLQ (BLQ: Below Lower Limit of Quantification (0.5 ng/mL)) | BLQ (BLQ: Below Lower Limit of Quantification (0.5 ng/mL)) | BLQ (BLQ: Below Lower Limit of Quantification (0.5 ng/mL)) | BLQ (BLQ: Below Lower Limit of Quantification (0.5 ng/mL)) | BLQ (BLQ: Below Lower Limit of Quantification (0.5 ng/mL)) | BLQ (BLQ: Below Lower Limit of Quantification (0.5 ng/mL)) | 
CC(C)COC(=O)N(C)C(C)Cc1ccc2c(c1)OCO2 (stereo not shown) [Isobutyl carbamate prodrug of MDMA, isobutyl N-[2-(1,3-benzodioxol-5-yl)-1-methyl-ethyl]-N-methyl-carbamate] | BLQ (BLQ: Below Lower Limit of Quantification (0.5 ng/mL)) | BLQ (BLQ: Below Lower Limit of Quantification (0.5 ng/mL)) | BLQ (BLQ: Below Lower Limit of Quantification (0.5 ng/mL)) | BLQ (BLQ: Below Lower Limit of Quantification (0.5 ng/mL)) | BLQ (BLQ: Below Lower Limit of Quantification (0.5 ng/mL)) | BLQ (BLQ: Below Lower Limit of Quantification (0.5 ng/mL)) | 
CC(C)OC(=O)N(C)C(C)Cc1ccc2c(c1)OCO2 (stereo not shown) [Isopropyl carbamate prodrug of MDMA, isopropyl N-[2-(1,3-benzodioxol-5-yl)-1-methyl-ethyl]-N-methyl-carbamate] | BLQ (BLQ: Below Lower Limit of Quantification (0.5 ng/mL)) | BLQ (BLQ: Below Lower Limit of Quantification (0.5 ng/mL)) | BLQ (BLQ: Below Lower Limit of Quantification (0.5 ng/mL)) | BLQ (BLQ: Below Lower Limit of Quantification (0.5 ng/mL)) | BLQ (BLQ: Below Lower Limit of Quantification (0.5 ng/mL)) | BLQ (BLQ: Below Lower Limit of Quantification (0.5 ng/mL)) | 
CC(Cc1ccc2c(c1)OCO2)N(C)C(=O)[C@@H](N)CCCCN (stereo partly drawn) [Lysine prodrug of MDMA, (2S)-2,6-diamino-N-[2-(1,3-benzodioxol-5-yl)-1-methyl-ethyl]-N-methyl-hexanamide] | BLQ (BLQ: Below Lower Limit of Quantification (0.5 ng/mL)) | BLQ (BLQ: Below Lower Limit of Quantification (0.5 ng/mL)) | BLQ (BLQ: Below Lower Limit of Quantification (0.5 ng/mL)) | BLQ (BLQ: Below Lower Limit of Quantification (0.5 ng/mL)) | BLQ (BLQ: Below Lower Limit of Quantification (0.5 ng/mL)) | BLQ (BLQ: Below Lower Limit of Quantification (0.5 ng/mL)) | 24.0
CC(=O)N(C)C(C)Cc1ccc2c(c1)OCO2 (stereo not shown) [Methyl amide (acetyl) prodrug of MDMA, N-[2-(2H-1,3-Benzodioxol-5-yl)-1-methyl-ethyl]-N-methylacetamide] | BLQ (BLQ: Below Lower Limit of Quantification (0.5 ng/mL)) | BLQ (BLQ: Below Lower Limit of Quantification (0.5 ng/mL)) | BLQ (BLQ: Below Lower Limit of Quantification (0.5 ng/mL)) | BLQ (BLQ: Below Lower Limit of Quantification (0.5 ng/mL)) | BLQ (BLQ: Below Lower Limit of Quantification (0.5 ng/mL)) | BLQ (BLQ: Below Lower Limit of Quantification (0.5 ng/mL)) | 
